Reference: PubChem BioAssay (NCI)
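Following 48 hours of exposure in 96-well plates, responses at five concentrations were used to interpolate endpoints linearly. TGI: concentration producing complete growth inhibition.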

Key:
Test in all cases: growth of human tumour cells (NCI), 48 h
NCI-H226 lung = system: NCI-H226 lung
SNB-19 CNS = system: SNB-19 CNS
MOLT-4 leukemia = system: MOLT-4 leukemia
MALME-3M melanoma = system: MALME-3M melanoma
NCI-H23 lung = system: NCI-H23 lung
CCRF-CEM leukemia = system: CCRF-CEM leukemia
UACC-257 melanoma = system: UACC-257 melanoma
UACC-62 melanoma = system: UACC-62 melanoma
T-47D breast = system: T-47D breast
OVCAR-3 ovarian = system: OVCAR-3 ovarian
A549 NSCLC = system: A549 NSCLC
BT-549 breast = system: BT-549 breast
COLO 205 colon = system: COLO 205 colon
RXF 393 renal = system: RXF 393 renal
HT29 colon = system: HT29 colon
MCF7 breast = system: MCF7 breast
TK-10 renal = system: TK-10 renal
NCI/ADR-RES ovarian = system: NCI/ADR-RES ovarian
NCI-H460 lung = system: NCI-H460 lung
DU-145 prostate = system: DU-145 prostate
K-562 leukemia = system: K-562 leukemia
SN12C renal = system: SN12C renal
SF-268 CNS = system: SF-268 CNS
HOP-92 NSCLC = system: HOP-92 NSCLC
SK-MEL-5 melanoma = system: SK-MEL-5 melanoma
HCT-15 colon = system: HCT-15 colon
SK-MEL-2 melanoma = system: SK-MEL-2 melanoma
MDA-MB-231 breast = system: MDA-MB-231 breast
SK-OV-3 ovarian = system: SK-OV-3 ovarian
SF-295 CNS = system: SF-295 CNS
OVCAR-8 ovarian = system: OVCAR-8 ovarian
OVCAR-4 ovarian = system: OVCAR-4 ovarian
HOP-62 NSCLC = system: HOP-62 NSCLC
HL-60(TB) leukemia = system: HL-60(TB) leukemia
SK-MEL-28 melanoma = system: SK-MEL-28 melanoma
NCI-H522 lung = system: NCI-H522 lung
KM12 colon = system: KM12 colon
HS 578T breast = system: HS 578T breast
CAKI-1 renal = system: CAKI-1 renal
MDA-MB-435 = system: MDA-MB-435
PC-3 prostate = system: PC-3 prostate
U251 CNS = system: U251 CNS
SNB-75 CNS = system: SNB-75 CNS
M14 melanoma = system: M14 melanoma
HCT-116 colon = system: HCT-116 colon
786-0 renal = system: 786-0 renal
SF-539 CNS = system: SF-539 CNS
UO-31 renal = system: UO-31 renal
LOX IMVI melanoma = system: LOX IMVI melanoma
MDA-N = system: MDA-N
A498 renal = system: A498 renal
IGROV1 ovarian = system: IGROV1 ovarian
SW-620 colon = system: SW-620 colon
OVCAR-5 ovarian = system: OVCAR-5 ovarian
EKVX NSCLC = system: EKVX NSCLC
ACHN renal = system: ACHN renal
RPMI-8226 leukemia = system: RPMI-8226 leukemia
HCC-2998 colon = system: HCC-2998 colon

O=C1/C(=N\n2c(-c3ccncc3)n[nH]c2=S)c2cc(Cl)ccc2N1CN1CCCCC1
TGI (NCI-H226 lung): > 100 µM | TGI (SNB-19 CNS): > 100 µM | TGI (MOLT-4 leukemia): 50.3 µM | TGI (MALME-3M melanoma): > 100 µM | TGI (NCI-H23 lung): > 100 µM | TGI (CCRF-CEM leukemia): 81.1 µM | TGI (UACC-257 melanoma): 76.2 µM | TGI (UACC-62 melanoma): > 100 µM | TGI (T-47D breast): > 100 µM | TGI (OVCAR-3 ovarian): > 100 µM | TGI (A549 NSCLC): > 100 µM | TGI (BT-549 breast): > 100 µM | TGI (COLO 205 colon): > 100 µM | TGI (RXF 393 renal): 38.3 µM | TGI (HT29 colon): > 100 µM | TGI (MCF7 breast): > 100 µM | TGI (TK-10 renal): > 100 µM | TGI (NCI/ADR-RES ovarian): > 100 µM | TGI (NCI-H460 lung): > 100 µM | TGI (DU-145 prostate): > 100 µM | TGI (K-562 leukemia): > 100 µM | TGI (SN12C renal): > 100 µM | TGI (SF-268 CNS): > 100 µM | TGI (HOP-92 NSCLC): > 100 µM | TGI (SK-MEL-5 melanoma): > 100 µM | TGI (HCT-15 colon): > 100 µM | TGI (SK-MEL-2 melanoma): 59.2 µM | TGI (MDA-MB-231 breast): > 100 µM | TGI (SK-OV-3 ovarian): > 100 µM | TGI (SF-295 CNS): > 100 µM | TGI (OVCAR-8 ovarian): > 100 µM | TGI (OVCAR-4 ovarian): > 100 µM | TGI (HOP-62 NSCLC): > 100 µM | TGI (HL-60(TB) leukemia): 47 µM | TGI (SK-MEL-28 melanoma): > 100 µM | TGI (NCI-H522 lung): 33.2 µM | TGI (KM12 colon): > 100 µM | TGI (HS 578T breast): 93.2 µM | TGI (CAKI-1 renal): > 100 µM | TGI (MDA-MB-435): > 100 µM | TGI (PC-3 prostate): > 100 µM | TGI (U251 CNS): > 100 µM | TGI (SNB-75 CNS): > 100 µM | TGI (M14 melanoma): > 100 µM | TGI (HCT-116 colon): > 100 µM | TGI (786-0 renal): > 100 µM | TGI (SF-539 CNS): > 100 µM | TGI (UO-31 renal): > 100 µM | TGI (LOX IMVI melanoma): 40.2 µM | TGI (MDA-N): > 100 µM | TGI (A498 renal): > 100 µM | TGI (IGROV1 ovarian): 75 µM | TGI (SW-620 colon): > 100 µM | TGI (OVCAR-5 ovarian): > 100 µM | TGI (EKVX NSCLC): > 100 µM | TGI (ACHN renal): > 100 µM

Cc1csc(-n2nc(C)cc2C)n1
TGI (NCI-H226 lung): > 100 µM | TGI (SNB-19 CNS): > 100 µM | TGI (MALME-3M melanoma): > 100 µM | TGI (NCI-H23 lung): > 100 µM | TGI (CCRF-CEM leukemia): > 100 µM | TGI (UACC-257 melanoma): > 100 µM | TGI (UACC-62 melanoma): > 100 µM | TGI (T-47D breast): > 100 µM | TGI (OVCAR-3 ovarian): > 100 µM | TGI (A549 NSCLC): > 100 µM | TGI (BT-549 breast): > 100 µM | TGI (COLO 205 colon): > 100 µM | TGI (RXF 393 renal): > 100 µM | TGI (HT29 colon): > 100 µM | TGI (MCF7 breast): > 100 µM | TGI (RPMI-8226 leukemia): > 100 µM | TGI (TK-10 renal): > 100 µM | TGI (NCI/ADR-RES ovarian): > 100 µM | TGI (NCI-H460 lung): > 100 µM | TGI (DU-145 prostate): > 100 µM | TGI (K-562 leukemia): > 100 µM | TGI (SN12C renal): > 100 µM | TGI (SF-268 CNS): > 100 µM | TGI (SK-MEL-5 melanoma): > 100 µM | TGI (HCT-15 colon): > 100 µM | TGI (SK-MEL-2 melanoma): > 100 µM | TGI (MDA-MB-231 breast): > 100 µM | TGI (SK-OV-3 ovarian): > 100 µM | TGI (SF-295 CNS): > 100 µM | TGI (OVCAR-8 ovarian): > 100 µM | TGI (OVCAR-4 ovarian): > 100 µM | TGI (HOP-62 NSCLC): > 100 µM | TGI (HL-60(TB) leukemia): > 100 µM | TGI (SK-MEL-28 melanoma): > 100 µM | TGI (NCI-H522 lung): > 100 µM | TGI (KM12 colon): > 100 µM | TGI (HS 578T breast): > 100 µM | TGI (CAKI-1 renal): > 100 µM | TGI (MDA-MB-435): > 100 µM | TGI (PC-3 prostate): > 100 µM | TGI (U251 CNS): > 100 µM | TGI (SNB-75 CNS): > 100 µM | TGI (HCC-2998 colon): > 100 µM | TGI (M14 melanoma): > 100 µM | TGI (HCT-116 colon): > 100 µM | TGI (786-0 renal): > 100 µM | TGI (SF-539 CNS): > 100 µM | TGI (UO-31 renal): > 100 µM | TGI (LOX IMVI melanoma): > 100 µM | TGI (MDA-N): > 100 µM | TGI (A498 renal): > 100 µM | TGI (IGROV1 ovarian): > 100 µM | TGI (SW-620 colon): > 100 µM | TGI (OVCAR-5 ovarian): > 100 µM | TGI (EKVX NSCLC): > 100 µM | TGI (ACHN renal): > 100 µM

O=C1/C(=C/c2ccc(O)c(CN3CCCCC3)c2)CCC/C1=C\c1ccc(O)c(CN2CCCCC2)c1
TGI (NCI-H226 lung): 48.2 µM | TGI (SNB-19 CNS): 17.7 µM | TGI (MOLT-4 leukemia): 27 µM | TGI (MALME-3M melanoma): 28.7 µM | TGI (NCI-H23 lung): 20.2 µM | TGI (CCRF-CEM leukemia): 17.7 µM | TGI (UACC-257 melanoma): 23.9 µM | TGI (UACC-62 melanoma): 38.2 µM | TGI (T-47D breast): 35.8 µM | TGI (OVCAR-3 ovarian): > 100 µM | TGI (A549 NSCLC): 53.5 µM | TGI (BT-549 breast): 31.3 µM | TGI (COLO 205 colon): 10.4 µM | TGI (RXF 393 renal): 15.5 µM | TGI (HT29 colon): 3.7 µM | TGI (MCF7 breast): 15.5 µM | TGI (RPMI-8226 leukemia): 35.8 µM | TGI (TK-10 renal): 21.1 µM | TGI (NCI/ADR-RES ovarian): 9.82 µM | TGI (NCI-H460 lung): 13.6 µM | TGI (DU-145 prostate): 17.6 µM | TGI (K-562 leukemia): 42.3 µM | TGI (SN12C renal): 59 µM | TGI (SF-268 CNS): 20.8 µM | TGI (HOP-92 NSCLC): 12.3 µM | TGI (SK-MEL-5 melanoma): 27.1 µM | TGI (HCT-15 colon): 29.5 µM | TGI (SK-MEL-2 melanoma): 50.6 µM | TGI (MDA-MB-231 breast): 17.4 µM | TGI (SK-OV-3 ovarian): 22.4 µM | TGI (SF-295 CNS): 16.3 µM | TGI (OVCAR-8 ovarian): 29.8 µM | TGI (OVCAR-4 ovarian): 33.2 µM | TGI (HOP-62 NSCLC): 26.3 µM | TGI (HL-60(TB) leukemia): 11.5 µM | TGI (SK-MEL-28 melanoma): 31.3 µM | TGI (KM12 colon): 14.8 µM | TGI (HS 578T breast): 83.8 µM | TGI (CAKI-1 renal): 34.5 µM | TGI (MDA-MB-435): 18.2 µM | TGI (PC-3 prostate): 44.6 µM | TGI (U251 CNS): 20.5 µM | TGI (SNB-75 CNS): 12.4 µM | TGI (HCC-2998 colon): 20.6 µM | TGI (M14 melanoma): 44.5 µM | TGI (HCT-116 colon): 14.7 µM | TGI (786-0 renal): 17.5 µM | TGI (UO-31 renal): 22.5 µM | TGI (LOX IMVI melanoma): 25.1 µM | TGI (MDA-N): 20.6 µM | TGI (A498 renal): 28.9 µM | TGI (IGROV1 ovarian): 29.4 µM | TGI (SW-620 colon): 29.1 µM | TGI (OVCAR-5 ovarian): > 100 µM | TGI (EKVX NSCLC): 25.2 µM | TGI (ACHN renal): 19.5 µM
